In patent publication US7374890B2, “Methods for identifying compounds that modulate ΔTRα2 activity” (University of Massachusetts, priority 2000, dated 2008):

Assays:
[1] = system: binding of p29^GFP vesicles to F-actin; test: modified in vitro actin binding assay with p29^GFP-labeled vesicles; assay type: biochemical, rat; settings: for competition with native myosin V for T4-dependent binding of p29 to F-actin: ~2-3 pmol polypeptide/50 μl mixture, 10 nM T4
Experimental: To define the specific region(s) of the myosin V tail that interact with the p29 vesicle, a series of deletion mutations were created based on the dominant negative effect of exogenous myosin V tail on p29 vesicle binding. Competition analysis of the myosin V deletion mutations on T4-dependent binding of p29 vesicles to F-actin was performed using a modified in vitro assay in which a GFP-tagged p29 fusion protein (p29^GFP) replaced the radioaffinity labeled native p29 (Farwell et al., 1990, J. Biol. Chem. 265:18546-18553; Farwell et al., 1993, J. Biol. Chem. 268:5055-5062). This allowed direct evaluation of the binding of fluorescent vesicles to F-actin without affinity radiolabeling of the p29 and subsequent SDS-PAGE analysis.
Specific fluorescence at 510 nm (excitation, 488 nm) was then determined in the resuspended Triton-insoluble pellets.
To determine if the myosin V tail could be captured by the p29^GFP vesicle, an exogenous myosin V^tail was introduced into astrocytes constitutively expressing p29^GFP by infection with Ad5-ΔMyo V^tail virus particles and examined the effects of T4 on the binding of the myosin V^tail to immunopurified p29^GFP vesicles. Astrocytes expressing p29^GFP were grown in serum-free media and treated for 16 hours with 1 mM bt2cAMP and 100 nM hydrocortisone. A separate pool of astrocytes was treated in serum-free media supplemented with 10 μM retinoic acid. Cells were collected by scraping, and lysed by two freeze-thaw cycles. […] Triton-soluble (vesicle) and Triton-insoluble (F-actin) fractions were separated by microflige centrifugation. Triton pellets were resuspended in 300 μl of PBS and fluorescence at 510 nm (excitation 488 nm) determined and relative fluorescence was reported as arbitrary units. Cells were treated with 10 nM T4 for twenty minutes and a Triton-soluble supernatant was prepared. Vesicles containing the p29^GFP were immunoprecipitated by anti-GFP IgG (2 μg/ml) and protein in the immunoprecipitates were resolved by SDS-PAGE. Immunoblot analysis of vesicle-associated myosin V was performed using the anti-myosin V antibody directed against the C-terminus.
The quantity of each mutant protein synthesized was determined by [^35 S]-methionine incorporation. Astrocytes expressing p29^GFP were grown in serum-free media and treated for 16 hours with […] bt2cAMP and 100 nM hydrocortisone. p29^GFP V-lysate and F-lysate were prepared as described herein. 100 μg aliquots of p29^GFP V-lysate and F-lysate were pre-incubated, in triplicate, for 20 minutes at 37° C. in the presence of individual Δ myosin V mutant proteins (˜2-3 pmol polypeptide/50 μl mixture) were added to the actin-binding assay and pre-incubated for 20 minutes at 37° C. T4 (10 nM) was then added, the mixtures incubated for 20 minutes at 37° C., and F-actin bound, fluorescent p29^GFP vesicles were then isolated in the Triton-insoluble pellet.
V lysates prepared from astrocytes over-expressing p29^GFP were pre-incubated for 30 minutes at room temperature with antisera raised against ΔTRα2, ΔTRα1, the C-terminus of MyoV (encoded by MyoV^tail, FIG. 5), the coiled-coil region of MyoV (encoded by MyoV^coil-coil, FIG. 5) and GFP (green fluorescent protein). T4 (10 nM) and actin fiber-containing F-lysate was then added, the mixtures incubated at 37° C. for 20 minutes, and the Triton-insoluble fraction isolated by centrifugation.

[2] = system: cerebellar granule neurons; test: FM1-43 synaptic vesicle recycling in cultured cerebellar granule neurons, spontaneous activity; assay type: cell-based, rat
Experimental: All of the major components of hormone-induced vesicle trafficking in astrocytes (actin fibers, myosin V (also referred to as myosin 5a and myo 5a), and recycling vesicles) are also present in nerve terminals. Therefore, the effects of thyroid hormone on synaptic vesicle recycling in the presynaptic nerve terminal were examined using myo5a-dependent synaptic vesicle (SV) recycling in cultured cerebellar granule neurons. In these experiments, rat granule neurons were grown on laminin-coated coverslips in the absence or presence of hormone and synaptic vesicle recycling was examined using FM1-43 (a styryl dye used in the art for studying endocytosis and exocytosis, e.g., in synaptic vesicle uptake and release assays; Molecular Probes, Inc. Eugene, Oreg.). […] In contrast, granule neurons grown in thyroid hormone supplemented medium released only 15-20% of the FM1-43 after six minutes of incubation and the hormone specificity of retention of FM1-43 in the “reserve pool” was identical to that determined for myo5a-dependent, endocytosis of p29 vesicles (D2p29 vesicles) in astrocytes.
Cerebellar granule neurons were examined because thyroid hormone has a profound influence on granule neuron viability during cerebellar maturation (Xiao and Nikodem, 1998, Front. Biosci. 3: A52-57; Rabie et al., 1980, Brain Res. 190:409-414), and because of the effects of the loss of myo5a on synaptic vesicle homeostasis (Bridgman, 1999, J. Cell Biol. 146:1045-1060). […]
Experiments were conducted to determine whether synaptic vesicle endocytosis could be altered by the hormone status of the neuron. […] The dye was then removed and the number, intensity and retention of the FM1-43 in random nerve terminals immediately after washing and after six minutes of autonomous activity were analyzed in paraformaldehyde fixed cells (Ryan, 1999, J. Neurosci.: 19:1317-1323). Fluorescence in single nerve terminals (ROI=7×7 pixels) and in an adjacent segment of the neuronal fiber were measured for 40-45 individual nerve terminals. […] Fluorescence intensity was determined using NIH Image software. The total FM1-43 fluorescence in a nerve terminal represents the sum of the dye-loaded synaptic vesicles in the readily releasable and the reserve pools.
By allowing recurrent activity, the FM1-43 filled synaptic vesicles present in the readily releasable pool will be progressively depleted. […] By measuring the total FM1-43 content in random nerve terminals immediately after loading and at 30 second intervals for six minutes of spontaneous activity, the influence of hormones on the distribution of recycling synaptic vesicles between the readily releasable and reserve pools was estimated.

[3] = system: cerebellar granule neurons; test: release of FM1-43-loaded synaptic vesicles from cerebellar granule neurons under continuous stimulus; assay type: cell-based, rat
Experimental: Granule neurons were grown for 7 days and rendered hormone free by growth in serum-free medium as detailed above. Coverslips were then placed in a perfusion chamber, mounted on the stage of a laser scanning confocal microscope and perfused at 1 ml/min at 25° C. with perfusion buffer (119 mM NaCl, 2.5 mM KCl, 2 mM CaCl2, 2 mM MgCl2, 25 mM HEPES (pH 7.4), 30 mM glucose, and […] AP-5). The effects of different hormones on synaptic vesicle trafficking were then determined. […] Depolarizing KCl was then removed from the perfusion buffer and the cells were exposed to FM1-43 for an additional 30 seconds to insure complete loading of recycling synaptic vesicles. Loaded cells were then washed free of dye and the cells were perfused for ten minutes at rest.
Images of a single field of neuronal fibers were then taken immediately before adding a second depolarizing solution (perfusion buffer containing 50 mM KCl) and at one and two minutes after beginning the continuous stimulation by 50 mM KCl. Thirty to forty-five individual FM1-43 labeled nerve terminals were identified in the baseline images (taken prior to depolarization) and the change in fluorescence (DF) for each nerve terminal determined at the one and two minute time points. FIGS. 11A and 11B show the results of analysis of the hormone specificity of synaptic vesicle trafficking (FIG. 11A) and the influence of individual myo5a mutants (FIG. 11B) on synaptic vesicle transport in granule neurons.
To evaluate the role of myo5a in synaptic vesicle transport, three different myo5a constructs were introduced into the neurons by replication-deficient adenoviral vectors (Δmyo5a^tail(MyoV^tail), Δmyo5a^c-term(MyoV^1830)and ΔMyo5a^CC(MyoV^cc) see FIG. 5) as described above. […] Neurons were infected with purified Ad5-constructs (MOI=10) 48 hours prior to the synaptic vesicle trafficking study, and allowed to recover in hormone (T4) supplemented medium. […] This modest influence of the VBD mutant on synaptic vesicle retention is likely to be due to the loss of the kinesin-binding domain that limits its delivery to nerve terminals.

## N[C@@H](Cc1cc(I)c(Oc2ccc(O)c(I)c2)c(I)c1)C(=O)O [T3, 3,5, 3′-triiodothyronine]
[1]; 0-100 nM, below the highest concentration
  p29^GFP vesicle binding to F-actin, dose-response: did not increase
[1]; 100 nM, highest concentration of hormone used
  increase in p29^GFP vesicle binding to F-actin: 10-20%
[2]; after three minutes of spontaneous activity
  endocytosed FM1-43 released: > 80%
[2]; immediately after loading
  uptake of FM1-43: No differences
[3]; 10 nM hormone, continuous stimulation by 50 mM KCl
  retention of recycling synaptic vesicles: no effect

## Δ myosin ^1830: myosin V tail deletion mutant, residues 1830-1852; vesicle-binding domain (NPSSLALETIQIPASLGLGFIAR)
[3]; expression from Ad5 construct (MOI=10), T4 supplemented medium
  increase of the t1/2 of FM1-43 retention: 50%

B1: A myosin V middle: myosin V truncation mutant corresponding to amino acids 504-1307 (protein)
chain: GILDLLDEECKMPKGTDDTWAQKLYNTHLNKCALFEKPRMSNKAFIIKHFADKVEYQCEGFLEKNKDTVFEEQIKVLKSSKFKMLPELFQDDEKAISPTSATSSGRTPLTRVPVKPTKGRPGQTAKEHKKTVGHQFRNSLHLLMETLNATTPHYVRCIKPNDFKFPFTFDEKRAVQQLRACGVLETIRISAAGFPSRWTYQEFFSRYRVLMKQKDVLGDRKQTCKNVLEKLILDKDKYQFGKTKIFFRAGQVAYLEKLRADKLRAACIRIQKTIRGWLLRKRYLCMQRAAITVQRYVRGYQARCYAKFLRRTKAATTIQKYWRMYVVRRRYKIRRAATIVIQSYLRGYLTRNRYRKILREYKAVIIQKRVRGWLARTHYKRTMKAIVYLQCCFRRMMAKRELKKLKIEARSVERYKKLHIGMENKIMQLQRKVDEQNKDYKCLMEKLTNLEGVYNSETEKLRNDVERLQLSEEEAKVATGRVLSLQEEIAKLRKDLEQTRSEKKSIEERADKYKQETDQLVSNLKEENTLLKQEKETLNHRIVEQAKEMTETMERKLVEETKQLELDLNDERLRYQNLLNEFSRLEERYDDLKEEMTLMLNVPKPGHKRTDSTHSSNESEYTFSSEFAETEDIAPRTEEPIEKKVPLDMSLFLKLQKRVTELEQEKQLMQDELDRKEEQVFRSKAKEEERPQIRGAELEYESLKRQELESENKKLKNELNELRKALSEKSAPEVTAPGAPAYRVLMEQLTSVSEELDVRKEEVLILRSQLVSQKEAIQPKDDKNTMTDSTILLEDVQKMKDKGE
[1]
  competition with native myosin V for T4-dependent binding of p29 to F-actin: did not compete

B2: myosin V tail lacking the last 44 residues (residues 953-1803): myosin V tail truncation mutant, residues 953-1803 (protein)
chain: LEGVYNSETEKLRNDVERLQLSEEEAKVATGRVLSLQEEIAKLRKDLEQTRSEKKSIEERADKYKQETDQLVSNLKEENTLLKQEKETLNHRIVEQAKEMTETMERKLVEETKQLELDLNDERLRYQNLLNEFSRLEERYDDLKEEMTLMLNVPKPGHKRTDSTHSSNESEYTFSSEFAETEDIAPRTEEPIEKKVPLDMSLFLKLQKRVTELEQEKQLMQDELDRKEEQVFRSKAKEEERPQIRGAELEYESLKRQELESENKKLKNELNELRKALSEKSAPEVTAPGAPAYRVLMEQLTSVSEELDVRKEEVLILRSQLVSQKEAIQPKDDKNTMTDSTILLEDVQKMKDKGEIAQAYIGLKETNRLLESQLQSQKRSHENEAEALRGEIQSLKEENNRQQQLLAQNLQLPPEARIEASLQHEITRLTNENLYFEELYADDPKKYQSYRISLYKRMIDLMEQLEKQDKTVRKLKKQLKVFAKKIGELEVGQMENISPGQIIDEPIRPVNIPRKEKDFQGMLEYKREDEQKLVKNLILELKPRGVAVNLIPGLPAYILFMCVRHADYLNDDQKVRSLLTSTINSIKKVLKKRGDDFETVSFWLSNTCRFLHCLKQYSGEEGFMKHNTSRQNEHCLTNFDLAEYRQVLSDLAIQIYQQLVRVLENILQPMIVSGMLEHETIQGVSGVKPTGLRKRTSSIADEGTYTLDSILRQLNSFHSVMCQHGMDPELIKQVVKQMFYIVGAITLNNLLLRKDMCSWSKGMQIRYNVSQLEEWLRDKNLMNSGAKETLEPLIQAAQLLQVKKKTDDDAEAICSMCNALTTAQIVKVLNLYTPVNEFEERVSVSFIRTIQ
[1]
  competition with native myosin V for T4-dependent binding of p29 to F-actin: did not compete
